Experimental data: PubChem BioAssay AID1259407 (Chemical Carcinogenesis Research Information System (CCRIS), 2018)
Activity calls are given as the source filed them. The rule behind the calls is not given here.

System: CCRIS mutagenicity, Ames/micronucleus/aberration tests
Assay: CCRIS mutagenicity studies
[1] = Test System: AMES SALMONELLA TYPHIMURIUM, Strain/Indicator: TA98, Metabolic Activation: HAMSTER, LIVER, S-9, AROCLOR 1254 (10%), Method: PREINCUBATION
[2] = Test System: AMES SALMONELLA TYPHIMURIUM, Strain/Indicator: TA98, Metabolic Activation: NONE, Method: PREINCUBATION
[3] = Test System: AMES SALMONELLA TYPHIMURIUM, Strain/Indicator: TA98, Metabolic Activation: RAT, LIVER, S-9, AROCLOR 1254 (10%), Method: PREINCUBATION
[4] = Test System: AMES SALMONELLA TYPHIMURIUM, Strain/Indicator: TA100, Metabolic Activation: HAMSTER, LIVER, S-9, AROCLOR 1254 (10%), Method: PREINCUBATION
[5] = Test System: AMES SALMONELLA TYPHIMURIUM, Strain/Indicator: TA100, Metabolic Activation: NONE, Method: PREINCUBATION
[6] = Test System: AMES SALMONELLA TYPHIMURIUM, Strain/Indicator: TA100, Metabolic Activation: RAT, LIVER, S-9, AROCLOR 1254 (10%), Method: PREINCUBATION
[7] = Test System: AMES SALMONELLA TYPHIMURIUM, Strain/Indicator: TA1535, Metabolic Activation: HAMSTER, LIVER, S-9, AROCLOR 1254 (10%), Method: PREINCUBATION
[8] = Test System: AMES SALMONELLA TYPHIMURIUM, Strain/Indicator: TA1535, Metabolic Activation: NONE, Method: PREINCUBATION
[9] = Test System: AMES SALMONELLA TYPHIMURIUM, Strain/Indicator: TA1535, Metabolic Activation: RAT, LIVER, S-9, AROCLOR 1254 (10%), Method: PREINCUBATION
[10] = Test System: AMES SALMONELLA TYPHIMURIUM, Strain/Indicator: TA1537, Metabolic Activation: HAMSTER, LIVER, S-9, AROCLOR 1254 (10%), Method: PREINCUBATION
[11] = Test System: AMES SALMONELLA TYPHIMURIUM, Strain/Indicator: TA1537, Metabolic Activation: NONE, Method: PREINCUBATION
[12] = Test System: AMES SALMONELLA TYPHIMURIUM, Strain/Indicator: TA1537, Metabolic Activation: RAT, LIVER, S-9, AROCLOR 1254 (10%), Method: PREINCUBATION
[13] = Test System: AMES SALMONELLA TYPHIMURIUM, Strain/Indicator: TA98, Metabolic Activation: NONE, Method: STANDARD PLATE
[14] = Test System: AMES SALMONELLA TYPHIMURIUM, Strain/Indicator: TA98, Metabolic Activation: RAT, LIVER, S-9, AROCLOR 1254, Method: STANDARD PLATE
[15] = Test System: AMES SALMONELLA TYPHIMURIUM, Strain/Indicator: TA100, Metabolic Activation: NONE, Method: STANDARD PLATE
[16] = Test System: AMES SALMONELLA TYPHIMURIUM, Strain/Indicator: TA100, Metabolic Activation: RAT, LIVER, S-9, AROCLOR 1254, Method: STANDARD PLATE
[17] = Test System: AMES SALMONELLA TYPHIMURIUM, Strain/Indicator: TA1535, Metabolic Activation: NONE, Method: STANDARD PLATE
[18] = Test System: AMES SALMONELLA TYPHIMURIUM, Strain/Indicator: TA1535, Metabolic Activation: RAT, LIVER, S-9, AROCLOR 1254, Method: STANDARD PLATE
[19] = Test System: AMES SALMONELLA TYPHIMURIUM, Strain/Indicator: TA1537, Metabolic Activation: NONE, Method: STANDARD PLATE
[20] = Test System: AMES SALMONELLA TYPHIMURIUM, Strain/Indicator: TA1537, Metabolic Activation: RAT, LIVER, S-9, AROCLOR 1254, Method: STANDARD PLATE
[21] = Test System: AMES SALMONELLA TYPHIMURIUM, Strain/Indicator: TA1538, Metabolic Activation: NONE, Method: STANDARD PLATE
[22] = Test System: AMES SALMONELLA TYPHIMURIUM, Strain/Indicator: TA1538, Metabolic Activation: RAT, LIVER, S-9, AROCLOR 1254, Method: STANDARD PLATE

## CC(C)CCO
Test System: CHINESE HAMSTER V-79, Strain/Indicator: V-79 (HPRT)/6-THIOGUANINE, Metabolic Activation: NONE, Method: STANDARD PLATE
  mutagenic call: inactive; negative
Test System: CHINESE HAMSTER V-79, Strain/Indicator: V-79 (HPRT)/6-THIOGUANINE, Metabolic Activation: RAT LIVER S-9, Method: STANDARD PLATE
  mutagenic call: inactive; negative
Test System: CHINESE HAMSTER V-79 CELLS, Strain/Indicator: V-79 CELLS (HPRT)/6-THIOGUANINE, Metabolic Activation: NONE, Method: PREINCUBATION
  mutagenic call: inactive; negative
Test System: CHINESE HAMSTER V-79 CELLS, Strain/Indicator: V-79 CELLS (HPRT)/6-THIOGUANINE, Metabolic Activation: S-9 (3%), Method: PREINCUBATION
  mutagenic call: inactive; negative

## c1ccc(N=NNc2ccccc2)cc1
End Point: IN VIVO MICRONUCLEUS, Test System: BONE MARROW, Species: MOUSE, Strain/Sex: B6C3F1/MALE, Route: GAVAGE
  mutagenic call: active; positive
[1]
  mutagenic call: active; positive
[2]
  mutagenic call: inactive; negative
[3]
  mutagenic call: active; positive
[4]
  mutagenic call: active; positive
[5]
  mutagenic call: inactive; negative
[6]
  mutagenic call: active; positive
[7]
  mutagenic call: inactive; negative
[8]
  mutagenic call: inactive; negative
[9]
  mutagenic call: inactive; negative
[10]
  mutagenic call: active; positive
[11]
  mutagenic call: inactive; negative
[12]
  mutagenic call: active; positive

## Fc1ccccc1-c1ccccc1
Test System: AMES SALMONELLA TYPHIMURIUM, Strain/Indicator: TA98, Metabolic Activation: HAMSTER, LIVER, S-9, AROCLOR 1254, Method: STANDARD PLATE
  mutagenic call: inactive; negative
[13]
  mutagenic call: inactive; negative
[14]
  mutagenic call: inactive; negative
Test System: AMES SALMONELLA TYPHIMURIUM, Strain/Indicator: TA100, Metabolic Activation: HAMSTER, LIVER, S-9, AROCLOR 1254, Method: STANDARD PLATE
  mutagenic call: inactive; negative
[15]
  mutagenic call: inactive; negative
[16]
  mutagenic call: inactive; negative
Test System: AMES SALMONELLA TYPHIMURIUM, Strain/Indicator: TA1535, Metabolic Activation: HAMSTER, LIVER, S-9, AROCLOR 1254, Method: STANDARD PLATE
  mutagenic call: inactive; negative
[17]
  mutagenic call: inactive; negative
[18]
  mutagenic call: inactive; negative
Test System: AMES SALMONELLA TYPHIMURIUM, Strain/Indicator: TA1537, Metabolic Activation: HAMSTER, LIVER, S-9, AROCLOR 1254, Method: STANDARD PLATE
  mutagenic call: inactive; negative
[19]
  mutagenic call: inactive; negative
[20]
  mutagenic call: inactive; negative
Test System: AMES SALMONELLA TYPHIMURIUM, Strain/Indicator: TA1538, Metabolic Activation: HAMSTER, LIVER, S-9, AROCLOR 1254, Method: STANDARD PLATE
  mutagenic call: inactive; negative
[21]
  mutagenic call: inactive; negative
[22]
  mutagenic call: inactive; negative
Test System: Mouse lymphoma, Strain/Indicator: L5178Y (tk+/tk-), Metabolic Activation: None, Method: Suspension/plate
  mutagenic call: inactive; negative
Test System: Mouse lymphoma, Strain/Indicator: L5178Y (tk+/tk-), Metabolic Activation: Rat, Liver, S-9, Aroclor 1254, Method: Suspension/plate
  mutagenic call: inactive; negative

## Nc1ccc(/C=C/c2ccc(N)c(S(=O)(=O)O)c2)c(S(=O)(=O)O)c1
[1]
  mutagenic call: inactive; negative
[2]
  mutagenic call: inactive; negative
[3]
  mutagenic call: inactive; negative
[4]
  mutagenic call: inactive; negative
[5]
  mutagenic call: inactive; negative
[6]
  mutagenic call: inactive; negative
[7]
  mutagenic call: inactive; negative
[8]
  mutagenic call: inactive; negative
[9]
  mutagenic call: inactive; negative
[10]
  mutagenic call: inactive; negative
[11]
  mutagenic call: inactive; negative
[12]
  mutagenic call: inactive; negative

## ClC(Cl)=Cc1c(Cl)c(Cl)c(Cl)c(Cl)c1Cl
[13]
  mutagenic call: inactive; negative
[14]
  mutagenic call: inactive; negative
[15]
  mutagenic call: inactive; negative
[16]
  mutagenic call: inactive; negative

## O=S(=O)(Cc1ccccc1)N1[C@@H]2c3ccccc3-c3ccccc3[C@@H]21 (some centres undefined)
[15]
  mutagenic call: active; positive

## Cc1c2ccccc2c(C)c2c3c(ccc12)[C@H](O)[C@@H](O)C=C3
Test System: CHINESE HAMSTER V-79, Strain/Indicator: V-79/6-THIOGUANINE, Metabolic Activation: CELL-MEDIATED, Method: STANDARD PLATE
  mutagenic call: active; positive
Test System: CHINESE HAMSTER V-79, Strain/Indicator: V-79/OUABAIN, Metabolic Activation: CELL-MEDIATED, Method: STANDARD PLATE
  mutagenic call: active; positive

## CC(/C=C(/C#N)c1ccc(F)cc1)C(c1ccccc1)C(C#N)c1ccc(F)cc1 (centres undefined)
[15]
  mutagenic call: inactive; negative

## O=C(O)Cc1c[nH]c2ccccc12
Test System: AMES SALMONELLA TYPHIMURIUM, Strain/Indicator: TA97A, Metabolic Activation: NONE, Method: STANDARD PLATE
  mutagenic call: inactive; negative
Test System: AMES SALMONELLA TYPHIMURIUM, Strain/Indicator: TA97A, Metabolic Activation: RAT, LIVER, S-9, AROCLOR 1254, Method: STANDARD PLATE
  mutagenic call: inactive; negative
[13]
  mutagenic call: inactive; negative
Test System: AMES SALMONELLA TYPHIMURIUM, Strain/Indicator: TA98, Metabolic Activation: RAT LIVER S-9, 3-METHYLCHOLANTHRENE AND PHENOBARBITAL, Method: STANDARD PLATE
  mutagenic call: inactive; negative
[14]
  mutagenic call: inactive; negative
[5]
  mutagenic call: inactive; negative
[15]
  mutagenic call: inactive; negative
Test System: AMES SALMONELLA TYPHIMURIUM, Strain/Indicator: TA100, Metabolic Activation: RAT LIVER S-9, 3-METHYLCHOLANTHRENE AND PHENOBARBITAL, Method: STANDARD PLATE
  mutagenic call: inactive; negative
[16]
  mutagenic call: inactive; negative
[17]
  mutagenic call: inactive; negative
[18]
  mutagenic call: inactive; negative
[19]
  mutagenic call: inactive; negative
[20]
  mutagenic call: inactive; negative
[21]
  mutagenic call: inactive; negative
[22]
  mutagenic call: inactive; negative
